Source: the NIST ThermoML archive (doi:10.1016/j.jct.2015.02.023)
± gives the expanded uncertainty stated by the source.

Assay: activity coefficient (dimensionless); of the first substance listed, at infinite dilution; xn = mol fraction of the nth substance listed
Conditions: 101.33 kPa, Liquid, Chromatography, x1 = 0

`CCc1ccccc1` [ethylbenzene] + CCn1cc[n+](C)c1.CO[PH](=O)[O-] gave an activity coefficient (313.15 K) of 11.4 ± 0.8, an activity coefficient (333.15 K) of 11.6 ± 0.8 and an activity coefficient (353.15 K) of 11.7 ± 0.8. It also gave an activity coefficient (373.15 K) of 11.9 ± 0.8.
In the case of `Cc1ccccc1C` [1,2-dimethylbenzene] + CCn1cc[n+](C)c1.CO[PH](=O)[O-], the activity coefficient (313.15 K) is reported as 14.4 ± 1, the activity coefficient (333.15 K) is reported as 15 ± 1 and the activity coefficient (353.15 K) is reported as 16.2 ± 1.1. For the same molecule, the activity coefficient (373.15 K) was 18.8 ± 1.3.
With `CCCCCCCCCCCC` [dodecane] + CCn1cc[n+](C)c1.CO[PH](=O)[O-] the activity coefficient (313.15 K) was 1740 ± 120, the activity coefficient (333.15 K) was 1540 ± 110 and the activity coefficient (353.15 K) was 1300 ± 90. The activity coefficient (373.15 K) was 915 ± 63.
For `CCCCCCCCCCC` [undecane] + CCn1cc[n+](C)c1.CO[PH](=O)[O-], the activity coefficient (313.15 K) was 1340 ± 93, the activity coefficient (333.15 K) was 1080 ± 74 and the activity coefficient (353.15 K) was 888 ± 61.
`ClC(Cl)Cl` [trichloromethane] + CCn1cc[n+](C)c1.CO[PH](=O)[O-] gave an activity coefficient (313.15 K) of 0.277 ± 0.03, an activity coefficient (333.15 K) of 0.358 ± 0.033 and an activity coefficient (353.15 K) of 0.451 ± 0.036. The activity coefficient (373.15 K) was 0.544 ± 0.04.
`CO` [methanol] + CO[PH](=O)[O-].Cn1cc[n+](C)c1 showed an activity coefficient (343.15 K) of 0.07 ± 0.03.
Work on `Cc1ccccc1` [toluene] + CO[PH](=O)[O-].Cn1cc[n+](C)c1 yielded an activity coefficient (313.15 K) of 11.5 ± 0.78, an activity coefficient (323.15 K) of 11.4 ± 0.78 and an activity coefficient (333.15 K) of 11.3 ± 0.77. The activity coefficient (343.15 K) was 11.2 ± 0.77.
`C1CCCCC1` [cyclohexane] + CCn1cc[n+](C)c1.CO[PH](=O)[O-] gave an activity coefficient (313.15 K) of 89 ± 6 and an activity coefficient (333.15 K) of 43.1 ± 3.
Work on `CCOCC` [diethyl ether] + CCn1cc[n+](C)c1.CO[PH](=O)[O-] yielded an activity coefficient (313.15 K) of 1.99 ± 0.14, an activity coefficient (333.15 K) of 2.43 ± 0.17 and an activity coefficient (353.15 K) of 3.5 ± 0.24. It also gave an activity coefficient (373.15 K) of 4.6 ± 0.31.
For `ClCCl` [dichloromethane] + CCn1cc[n+](C)c1.CO[PH](=O)[O-], the activity coefficient (313.15 K) was 0.502 ± 0.038, the activity coefficient (333.15 K) was 0.642 ± 0.044 and the activity coefficient (353.15 K) was 0.798 ± 0.052.
Work on `CCCCCCCCC` [nonane] + CCn1cc[n+](C)c1.CO[PH](=O)[O-] yielded an activity coefficient (313.15 K) of 617 ± 42 and an activity coefficient (333.15 K) of 485 ± 33.
With `CCC[N+](=O)[O-]` [1-nitropropane] + CCn1cc[n+](C)c1.CO[PH](=O)[O-] the activity coefficient (313.15 K) was 2.68 ± 0.18, the activity coefficient (333.15 K) was 2.69 ± 0.18 and the activity coefficient (353.15 K) was 2.75 ± 0.19. For the same molecule, the activity coefficient (373.15 K) was 2.8 ± 0.19.
With `C1COCCO1` [1,4-dioxane] + CO[PH](=O)[O-].Cn1cc[n+](C)c1 the activity coefficient (313.15 K) was 3.73 ± 0.25, the activity coefficient (323.15 K) was 3.72 ± 0.25 and the activity coefficient (333.15 K) was 3.69 ± 0.25. For the same molecule, the activity coefficient (343.15 K) was 3.66 ± 0.25.
For `CCCCCCCCC` [nonane] + CO[PH](=O)[O-].Cn1cc[n+](C)c1, the activity coefficient (313.15 K) was 1070 ± 74 and the activity coefficient (323.15 K) was 1050 ± 72.
For `Cc1ccccc1C` [1,2-dimethylbenzene] + CO[PH](=O)[O-].Cn1cc[n+](C)c1, the activity coefficient (313.15 K) was 19.2 ± 1.3, the activity coefficient (323.15 K) was 19.1 ± 1.3 and the activity coefficient (333.15 K) was 18.6 ± 1.3. For the same molecule, the activity coefficient (343.15 K) was 18.5 ± 1.3.
`CCC(=O)CC` [pentan-3-one] + CCn1cc[n+](C)c1.CO[PH](=O)[O-] gave an activity coefficient (313.15 K) of 5.77 ± 0.39, an activity coefficient (333.15 K) of 5.88 ± 0.4 and an activity coefficient (353.15 K) of 6 ± 0.41. For the same molecule, the activity coefficient (373.15 K) was 6.17 ± 0.42.
Work on `CCCCCCCCCC` [decane] + CO[PH](=O)[O-].Cn1cc[n+](C)c1 yielded an activity coefficient (313.15 K) of 1220 ± 84 and an activity coefficient (323.15 K) of 1210 ± 84.
With `CCCCCCCCCCCCC` [tridecane] + CCn1cc[n+](C)c1.CO[PH](=O)[O-] the activity coefficient (313.15 K) was 2560 ± 180, the activity coefficient (333.15 K) was 2130 ± 150 and the activity coefficient (353.15 K) was 1850 ± 130. For the same molecule, the activity coefficient (373.15 K) was 1300 ± 89.
`C=O` [methanal] + CCn1cc[n+](C)c1.CO[PH](=O)[O-] gave an activity coefficient (313.15 K) of 0.059, an activity coefficient (333.15 K) of 0.084 ± 0.03 and an activity coefficient (353.15 K) of 0.115 ± 0.03. It also gave an activity coefficient (373.15 K) of 0.151 ± 0.029.
`CCN(CC)CC` [triethylamine] + CCn1cc[n+](C)c1.CO[PH](=O)[O-] gave an activity coefficient (313.15 K) of 30.2 ± 2.1 and an activity coefficient (333.15 K) of 48 ± 3.3.
Work on `C#CCCCCC` [1-heptyne] + CO[PH](=O)[O-].Cn1cc[n+](C)c1 yielded an activity coefficient (313.15 K) of 22 ± 1.5, an activity coefficient (323.15 K) of 23.5 ± 1.6 and an activity coefficient (333.15 K) of 23.5 ± 1.6. For the same molecule, the activity coefficient (343.15 K) was 24.9 ± 1.7.
With `CCO` [ethanol] + CCn1cc[n+](C)c1.CO[PH](=O)[O-] the activity coefficient (333.15 K) was 0.148 ± 0.029, the activity coefficient (353.15 K) was 0.156 ± 0.029 and the activity coefficient (373.15 K) was 0.169 ± 0.029.
